Results on 21 molecules are retold here after ChEMBL document CHEMBL3046233, “Synthesis and anticonvulsant activity of 4-(2-phenoxyphenyl)semicarbazones” (Med Chem Res, 2009).

SMILES strings stand for the structures.

The test system of series [1] is Rattus norvegicus. The series can be described thus: Anticonvulsant activity in Rattus norvegicus Wistar (rat) pentylenetetrazole-induced kindling model assessed as seizure latency time at 30 mg/kg, ip administered 30 min before pentylenetetrazole challenge. In kind it is functional. To be noted: route intraperitoneal.
Series [2] has as its system Rattus norvegicus. Nature of the series: Anticonvulsant activity in Rattus norvegicus Wistar (rat) pentylenetetrazole-induced kindling model assessed as seizure time at 30 mg/kg, ip administered 30 min before pentylenetetrazole challenge. Format: functional. Particulars: route intraperitoneal.
In series [3] the test system is Rattus norvegicus. The series can be described thus: Neurotoxicity in Rattus norvegicus Wistar (rat) at 300 mg/kg, ip by rotarod test. In kind it is toxicity, organism-based. Details: dose 300 mg/kg, route intraperitoneal. To be noted: in vivo.
The subject of series [4] is Rattus norvegicus. The series can be described thus: Anticonvulsant activity in Rattus norvegicus Wistar (rat) pentylenetetrazole-induced kindling model assessed as seizure latency time at 200 mg/kg, ip administered 30 min before pentylenetetrazole challenge. Particulars: route intraperitoneal. In kind it is functional.
The test system of series [5] is Rattus norvegicus. The series can be described thus: Anticonvulsant activity in Rattus norvegicus Wistar (rat) pentylenetetrazole-induced kindling model assessed as seizure time at 100 mg/kg, ip administered 30 min before pentylenetetrazole challenge. In kind it is functional. Particulars: route intraperitoneal.
Series [6] has as its system Rattus norvegicus. The series can be described thus: Anticonvulsant activity in Rattus norvegicus Wistar (rat) pentylenetetrazole-induced kindling model assessed as seizure latency time at 100 mg/kg, ip administered 30 min before pentylenetetrazole challenge. Format: functional. Particulars: route intraperitoneal.
Series [7] relates to Rattus norvegicus. The series can be described thus: Anticonvulsant activity in Rattus norvegicus Wistar (rat) pentylenetetrazole-induced kindling model assessed as seizure time at 200 mg/kg, ip administered 30 min before pentylenetetrazole challenge. Particulars: route intraperitoneal. Format: functional.

Turning to `C/C(=N\NC(=O)Nc1ccccc1Oc1ccccc1)c1ccccc1O`, the values for the Time in the series with Rattus norvegicus [1] and with Rattus norvegicus [2] were 532.4 s and 33.2 s, respectively.

For `CSc1ccc(/C(C)=N/NC(=O)Nc2ccccc2Oc2ccccc2)cc1`, the Time with Rattus norvegicus [1] is given as 189.4 s; in the series with Rattus norvegicus [2] it was 75 s.

For the molecule `O=C(N/N=C/c1ccccc1[N+](=O)[O-])Nc1ccccc1Oc1ccccc1`, the results for the Time in the series on Rattus norvegicus [1] and with Rattus norvegicus [2] were 858.66 s and 36.5 s, respectively.

Turning to `CSc1ccc(/C=N/NC(=O)Nc2ccccc2Oc2ccccc2)cc1`, the values for the Time with Rattus norvegicus [1] and with Rattus norvegicus [2] were 244.75 s and 66.5 s, respectively.

In the case of `C/C(=N\NC(=O)Nc1ccccc1Oc1ccccc1)c1cccc(Br)c1`, the values for the Time with Rattus norvegicus [1] and in the series on Rattus norvegicus [2] were 209.66 s and 85.33 s, respectively.

In the case of `COc1ccc(OC)c(/C(C)=N/NC(=O)Nc2ccccc2Oc2ccccc2)c1`, the Time with Rattus norvegicus [1] is 110 s; with Rattus norvegicus [2], 69.16 s.

For the molecule `O=C(N/N=C/c1cccnc1)Nc1ccccc1Oc1ccccc1`, the values for the Time in the series on Rattus norvegicus [1] and in the series with Rattus norvegicus [2] were 903 s and 40.4 s, respectively.

As for `O=C(N/N=C/c1ccc([N+](=O)[O-])cc1)Nc1ccccc1Oc1ccccc1`, the Time is reported as 293.75 s in the series with Rattus norvegicus [1] and 79.75 s in the series with Rattus norvegicus [2].

On to `C/C(=N\NC(=O)Nc1ccccc1Oc1ccccc1)c1ccc([N+](=O)[O-])cc1`, for which the Time was determined as 404.25 s in the series on Rattus norvegicus [1] and 64.25 s with Rattus norvegicus [2].

Regarding `C/C(=N\NC(=O)Nc1ccccc1Oc1ccccc1)c1ccccc1`, the Time in the series with Rattus norvegicus [1] turned out to be 293.75 s; in the series on Rattus norvegicus [2] it was 48.75 s.

As to `C/C(=N\NC(=O)Nc1ccccc1Oc1ccccc1)c1ccc(C)cc1`, the Time came out at 405.42 s with Rattus norvegicus [1] and 71.42 s in the series with Rattus norvegicus [2].

As to `O=C(N/N=C/c1cccc(Br)c1)Nc1ccccc1Oc1ccccc1`, the figures for the Time in the series on Rattus norvegicus [1] and with Rattus norvegicus [2] were 229.33 s and 81 s, respectively.

Consider `O=C(N/N=C/c1cccc([N+](=O)[O-])c1)Nc1ccccc1Oc1ccccc1`, for which the figures for the Time with Rattus norvegicus [1] and in the series with Rattus norvegicus [2] were 636.2 s and 40.2 s, respectively.

`C/C(=N\NC(=O)Nc1ccccc1Oc1ccccc1)c1cccc([N+](=O)[O-])c1`: the figures for the Time with Rattus norvegicus [1] and in the series on Rattus norvegicus [2] were 832.2 s and 32.2 s, respectively.

As to `O=C(N/N=C/c1ccccn1)Nc1ccccc1Oc1ccccc1`, the Time amounted to 1161.6 s with Rattus norvegicus [1] and 23 s in the series with Rattus norvegicus [2]. Also, the Activity entry with Rattus norvegicus [3] is given as “Non-toxic”.

For `COc1ccc(OC)c(/C=N/NC(=O)Nc2ccccc2Oc2ccccc2)c1`, the Time was 150.16 s in the series on Rattus norvegicus [1] and 54.83 s in the series with Rattus norvegicus [2].

Consider `CCCC(CCC)C(=O)[O-].[Na+]` [VALPROATE SODIUM], for which the Time was 900.62 s in the series on Rattus norvegicus [4], 40 s with Rattus norvegicus [5], 817.42 s in the series with Rattus norvegicus [6] and 26.5 s in the series with Rattus norvegicus [7].

Take `Cc1ccc(/C=N/NC(=O)Nc2ccccc2Oc2ccccc2)cc1`: the Time in the series with Rattus norvegicus [1] worked out at 418.71 s; in the series on Rattus norvegicus [2], 59.28 s.

For `O=C(N/N=C/c1ccncc1)Nc1ccccc1Oc1ccccc1`, the values for the Time with Rattus norvegicus [1] and with Rattus norvegicus [2] were 969.83 s and 31.16 s, respectively. The Activity result in the series on Rattus norvegicus [3] is given as “Non-toxic”.

For `O=C(N/N=C/c1ccccc1)Nc1ccccc1Oc1ccccc1`, the Time in the series on Rattus norvegicus [1] stood at 508.5 s; in the series on Rattus norvegicus [2], 48.5 s.

In the case of `C/C(=N\NC(=O)Nc1ccccc1Oc1ccccc1)c1ccccc1[N+](=O)[O-]`, the Time in the series with Rattus norvegicus [1] is 639.2 s; in the series on Rattus norvegicus [2], 40.6 s.
